Measured values reported in patent US20200360471A1, “METHODS OF TREATING AND PREVENTING VIRAL INFECTIONS” (priority 2017, published 2020).
Peptide text beside a SMILES is read from it.

Key:
[1] = system: HPVS PsV; details: read-out: IC50, inhibition of uptake of HPVS PsV; PsV 1:6000 dilution, 293TT cells
Procedure: Pseudovirus (PsV) of HPVS was prepared using method described by Buck et al, (Journal of Virology, January 2004; 751-757) and used as a model HPV in this study. The PsV stocks were prepared by co-transfecting human 293TT cells with HPVS viral plasmid p5Shell containing codon-modified papillomavirus capsid genes for L1 and L2 proteins, and pcLucF reporter plasmid containing the luciferase gene for detecting viral infection. The cell lysates containing the capsidized virus was used as the PsV stock. Optimal PsV dilution factor was determined based on the luciferase activity in 293TT cells infected with serially diluted HPVS PsV.
Data were collected on a Molecular Devices Flexstation 3 Microplate Reader using Softmax Pro v5.4.4. Data analysis was performed on Prism software using four parameter logistic model. […] Furin Inhibitor I was used as a positive control for HPVS PsV inhibition since it blocks the viral entry into host cells.
Two runs were performed for each dilution level.

[2] = system: TLR7; assay: imiquimod-induced cytokine responses in PBMC cultures with peptide pre-treatment; type: cell-based, human
Procedure: Primary cell cultures were prepared in RPMI including 5% autologous plasma. Isolated PBMC cells were cultured in 96-well plates at a density of 0.5×10^6cells/well at 37° C., under humidified 5% CO2.
IL-1β, TNFα, IL-6 and IL-8 were measured simultaneously with a fixed electrochemoluminescence platform based on the sandwich ELISA principle of capture and detection antibodies, produced by MESO SCALE DISCOVERY (MSD, MESO SCALE QUICKPLEX SQ120). The applied assay was the V-PLEX PLUS pro-inflammatory cytokine panel II, including IL-1β, TNFα, IL-6 and IL-8. This assay includes manufacturer-provided control samples with indicated nominal values for comparison. These lyophilized controls, i.e. freeze-dried controls for IL-1β, TNFα, IL-6, IL-8, were prepared freshly at the time of use. QC samples were prepared from the calibrator at 3 different concentrations along the standard curve as multiple aliquots from a single batch and maintained at −20° C. Low, medium and high concentration controls were included in every multiplex assay run to control intra- and inter-assay variation. V-PLEX panels are specific for the detection of human chemokines and cytokines, and combinations have been validated by the manufacturer, to ensure no cross-reactivity.
IFNα was quantified by a sandwich ELISA based on specific capture and detection antibodies for various matrices (MABTECH), according to the manufacturer's instructions. QC samples were prepared from the calibrator at 3 different concentrations along the standard curve as multiple aliquots from a single batch and maintained at −20° C.
IFNβ was quantified by a sandwich ELISA based on specific capture and detection antibodies for various matrices (PBL ASSAY SCIENCE), according to the manufacturer's instructions. QC samples were prepared from the calibrator at 3 different concentrations along the standard curve as multiple aliquots from a single batch and maintained at −20° C. freezer.
Briefly, PBMC primary cultures were prepared from 4 healthy donors (2 males, 2 females) as described above. […] The cultures were prepared in duplicate and the readouts for pan-IFNα and IFNβ (ELISA) were measured once. Five-point concentration-response curves were constructed for the various treatment conditions in the PBMC cultures, freshly isolated from 4 subjects.

[3] = system: HPV6 and HPV11; assay: HPV viral load (qPCR) in swabs of target wart; type: in vivo
Procedure: (§1) The treatment period was from day 0 till day 84. During the treatment period subjects visited the clinical unit on days 0, 14, 28, 56 and 84. A fixed dose of omiganan or placebo was applied once daily. Two follow up visits were scheduled on days 126 and 168. During study execution, vital signs were measured on days 0, 14, 28, 56 and 84. Pharmacodynamic assessments were performed on day 0 (pre-dose), 14, 28, 56 and 84, respectively. Punch biopsies were performed at the screening and on days 56 and 168. Subjects were dosed 84 consecutive days with approximately 24 hours between each treatment.
HPV viral load in swabs. Swabs were taken from the target wart (or site where target wart was) at every study visit. A quantitative PCR (qPCR) of the swabs was performed for HPV6 and HPV11 to determine the viral load of the specific HPV. Swab samples were collected at day 0, 14, 28, 56, 84 (EOT), […] and 168 (EOS). In FIGS. 22A and 22B, the qPCR was expressed as copies/μL and natural log transformed. In FIGS. 23A and 23B, the qPCR was expressed as copies/μL, natural log transformed and also corrected for the amount of DNA in the sample.

[4] = system: IL-1β, IL-8; assay: Biomarkers (qPCR) in wart biopsies; type: in vivo, human; details: during the study period
Procedure: as §1
Biomarkers in biopsy. Biopsies were taken from biopsy wart 1 at screening, biopsy wart 2 at EOT and target wart at EOS. Biopsies were only taken when the warts were still visible.

[5] = system: TLR9; assay: TLR9-mediated interferon responses in PBMC cultures (IFN-α ELISA); type: cell-based, human
Procedure: CpG motifs are present in a variety of DNA viruses and CpG signaling is relevant to host defense against viral infections. Briefly, PBMC primary cultures were prepared from 2 donors. […] E. coli ssDNA (5 μg/mL) or PBS (unstimulated). The readouts for IFN-α in cell supernatant were measured by ELISA.

[6] = 5 or 25 μg/mL peptide, 30 min pre-treatment, 24 hrs
[7] = right-shift of imiquimod concentration response curves
[8] = 6.25 or 25 μg/mL omiganan 30min pre-incubation, 24hr

## CC[C@H](C)[C@H](N)C(=O)N[C@@H](CC(C)C)C(=O)N[C@@H](CCCNC(=N)N)C(=O)N[C@@H](Cc1c[nH]c2ccccc12)C(=O)N1CCC[C@H]1C(=O)N[C@@H](Cc1c[nH]c2ccccc12)C(=O)N[C@@H](Cc1c[nH]c2ccccc12)C(=O)N1CCC[C@H]1C(=O)N[C@@H](Cc1c[nH]c2ccccc12)C(=O)N[C@@H](CCCNC(=N)N)C(=O)N[C@@H](CCCNC(=N)N)C(=O)N[C@@H](CCCCN)C(N)=O [omiganan, I L R W P W W P W R R K] (H-ILRWPWWPWRRK-NH2)
[1]
  IC50: 23.5 to 29.1 µM
[2]; [6]
  IL-6 responses to imiquimod (TLR7): inhibited
  TNFα responses to imiquimod (TLR7): inhibited
[2]; 5 or 25 μg/mL peptide, 30 min pre-treatment, 24 hrs, PBMC of 4 donors
  interferon responses in the presence of imiquimod: induced strong interferon responses
[2]; [7]
  IL-1(3 responses to imiquimod (TLR7)): inhibited
  IL-8 responses to imiquimod (TLR7): inhibited
[3]; during omiganan treatment
  viral load of HPV6 in swabs: strong trend toward reduction
[3]; swabs, qPCR, at EOT, p=0.0201
  HPV6 and HPV11 viral load compared to placebo: statistical significant decrease
[4]
  amount of IL-1β in biopsies: increased
  amount of IL-8 in biopsies: increased
[5]; [8]
  CpG-A IFN-α responses: strongly enhanced
  CpG-B IFN-α responses: did so strongly
  CpG-C IFN-α responses: concentration-dependently enhanced
[5]; omiganan pre-incubation, E. coli ssDNA 5 μg/mL
  ssDNA-driven IFN-α responses: initial inhibition of cytokine release at low omiganan concentrations, and an enhancement of cytokine release at higher omiganan concentrations
